Measured values: patent publication US7989471B2, “Macrocyclic inhibitors of hepatitis C virus” (Tibotec Pharmaceuticals Ltd., priority 2005, dated 2011)

These compounds were tested on HCV replicons (NS3-NS5B regions of HCV type Ib) in Huh-7 luc/neo cells (assay: HCV replicon assay (Huh-Luc luciferase reporter)). Conditions: Hepatitis C virus, Huh-7, 72 h.
Format: cell-based
Description: The in vitro antiviral activity against HCV of the compounds of formula (I) was tested in a cellular HCV replicon system based on Lohmann et al. (1999) Science 285:110-113, with the further modifications described by Krieger et al. (2001) Journal of Virology 75: 4614-4624, which is further exemplified in the examples section. This model, while not a complete infection model for HCV, is widely accepted as the most robust and efficient model of autonomous HCV RNA replication currently available. […] It will be appreciated that it is important to distinguish between compounds that specifically interfere with HCV functions from those that exert cytotoxic or cytostatic effects in the HCV replicon model, and as a consequence cause a decrease in HCV RNA or linked reporter enzyme concentration. Assays are known in the field for the evaluation of cellular cytotoxicity based for example on the activity of mitochondrial enzymes using fluorogenic redox dyes such as resazurin. Furthermore, cellular counter screens exist for the evaluation of non-selective inhibition of linked reporter gene activity, such as firefly luciferase. Appropriate cell types can be equipped by stable transfection with a luciferase reporter gene whose expression is dependent on a constitutively active gene promoter, and such cells can be used as a counter-screen to eliminate non-selective inhibitors.
The compounds of formula (I) were examined for activity in the inhibition of HCV RNA replication in a cellular assay. […] The cellular assay was based on a bicistronic expression construct, as described by Lohmann et al. (1999) Science vol. 285 pp. 110-113 with modifications described by Krieger et al. (2001) Journal of Virology 75: 4614-4624, in a multi-target screening strategy. In essence, the method was as follows.
The assay utilized the stably transfected cell line Huh-7 luc/neo (hereafter referred to as Huh-Luc). This cell line harbors an RNA encoding a bicistronic expression construct comprising the wild type NS3-NS5B regions of HCV type Ib translated from an Internal Ribosome Entry Site (IRES) from encephalomyocarditis virus (EMCV), preceded by a reporter portion (FfL-luciferase), and a selectable marker portion (neo^R, neomycine phosphotransferase). The construct is bordered by 5′ and 3′ NTRs (non-translated regions) from HCV type Ib. Continued culture of the replicon cells in the presence of G418 (neo^R) is dependent on the replication of the HCV RNA. The stably transfected replicon cells that express HCV RNA, which replicates autonomously and to high levels, encoding inter alia luciferase, are used for screening the antiviral compounds.
The replicon cells were plated in 384 well plates in the presence of the test and control compounds which were added in various concentrations. Following an incubation of three days, HCV replication was measured by assaying luciferase activity (using standard luciferase assay substrates and reagents and a Perkin Elmer ViewLux™ ultraHTS microplate imager). Replicon cells in the control cultures have high luciferase expression in the absence of any inhibitor. The inhibitory activity of the compound on luciferase activity was monitored on the Huh-Luc cells, enabling a dose-response curve for each test compound.
`COc1ccc2c(O[C@@H]3C[C@H]4C(=O)N[C@]5(C(=O)O)C[C@H]5/C=C\CCCCCC(C)(C)C(=O)N4C3)cc(-c3nc(C(C)C)cs3)nc2c1Cl` [Compound 54, 18-[8-chloro-2-(4-isopropylthiazol-2-yl)-7-methoxyquinolin-4-yloxy]-14,14-dimethyl-2,15-dioxo-3,16-diazatricyclo[14.3.0.0^4,6]nonadec-7-ene-4-carboxylic acid] was tested, and the EC50 was ≥ 10000 nM.

Same assay, conditions: Hepatitis C virus, Huh-7, 72 h; Huh-Luc replicon cells, three days incubation, luciferase activity; read-out: EC50
`COc1ccc2c(O[C@@H]3C[C@H]4C(=O)N[C@]5(C(=O)NS(=O)(=O)C6CC6)C[C@H]5CCCCCCCC(=O)N4C3)cc(-c3nc(C(C)C)cs3)nc2c1` (stereo in doubt) [Compound 64, N-[17-[2-(4-isopropylthiazol-2-yl)-7-methoxyquinolin-4-yloxy]-2,14-dioxo-3,15-diazatricyclo[13.3.0.0^4,6]octadecane-4-carbonyl]-(cyclopropyl)sulfonamide] gave an EC50 of 67 nM.
Compound `COc1ccc2c(O[C@@H]3C[C@H]4C(=O)N[C@]5(C(=O)O)C[C@H]5/C=C\CCCCCCC(=O)N4C3)cc(-c3nc(C(C)C)cs3)nc2c1` [Compound 10, 18-[2-[4-(isopropyl)thiazol-2-yl]-7-methoxyquinolin-4-yloxy]-2,15-dioxo-3,16-diazatricyclo[14.3.0.0^4,6]nonadec-7-ene-4-carboxylic acid] has an EC50 of 5040 nM.
Work on `COc1ccc2c(O[C@@H]3C[C@H]4C(=O)N[C@]5(C(=O)O)C[C@H]5/C=C\CCCCCCC(=O)N4C3)cc(-c3csc(NC(C)C)n3)nc2c1` [Compound 12, 18-[2-[2-(isopropylamino)thiazol-4-yl]-7-methoxyquinolin-4-yloxy]-2,15-dioxo-3,16-diazatricyclo[14.3.0.0^4,6]nonadec-7-ene-4-carboxylic acid] yielded an EC50 of 1980 nM.
For `COc1ccc2c(O[C@@H]3C[C@H]4C(=O)N[C@]5(C(=O)NS(=O)(=O)C6CC6)C[C@H]5/C=C\CCCCCCC(=O)N4C3)cc(-c3csc(NC(C)C)n3)nc2c1` [Compound 13, N-[[18-[2-[2-(isopropylamino)thiazol-4-yl]-7-methoxyquinolin-4-yloxy]-2,15-dioxo-3,16-diazatricyclo[14.3.0.0^4,6]nonadec-7-en-4-yl]carbonyl](cyclopropyl)sulfonamide], the EC50 was 20 nM.
For `COc1ccc2c(O[C@@H]3C[C@H]4C(=O)N[C@]5(C(=O)NS(=O)(=O)C6CC6)C[C@H]5/C=C\CCCCCCC(=O)N4C3)cc(-c3nccs3)nc2c1C` [Compound 26, N-[18-[2-(thiazol-2-yl)-7-methoxy-8-methylquinolin-4-yloxy]-2,15-dioxo-3,16-diazatricyclo[14.3.0.0^4,6]nonadec-7-ene-4-carbonyl]-(cyclopropyl)sulfonamide], the EC50 was 4 nM.
In the case of `COc1ccc2c(O[C@@H]3C[C@H]4C(=O)N[C@]5(C(=O)O)C[C@H]5/C=C\CCCCCCC(=O)N4C3)cc(-c3nc(C(C)C)cs3)nc2c1C` [Compound 29, 18-[2-(4-isopropylthiazol-2-yl)-7-methoxy-8-methylquinolin-4-yloxy]-2,15-dioxo-3,16-diazatricyclo[14.3.0.0^4,6]nonadec-7-ene-4-carboxylic acid], the EC50 is reported as 1960 nM.
In the case of `COc1ccc2c(O[C@@H]3C[C@H]4C(=O)N[C@]5(C(=O)NS(=O)(=O)C6CC6)C[C@H]5/C=C\CCCCCCC(=O)N4C3)cc(-c3nc(C(C)C)cs3)nc2c1C` [Compound 30, N-[18-[2-(4-isopropylthiazol-2-yl)-7-methoxy-8-methylquinolin-4-yloxy]-2,15-dioxo-3,16-diazatricyclo[14.3.0.0^4,6]nonadec-7-ene-4-carbonyl](cyclopropyl)sulfonamide], the EC50 is reported as 6 nM.
For `COc1ccc2c(O[C@@H]3C[C@H]4C(=O)N[C@]5(C(=O)O)C[C@H]5/C=C\CCCCCCC(=O)N4C3)cc(-c3nccs3)nc2c1` [Compound 31, 18-[7-methoxy-2-(thiazol-2-yl)quinolin-4-yloxy]-2,15-dioxo-3,16-diazatricyclo[14.3.0.0^4,6]nonadec-7-ene-4-carboxylic acid], the EC50 was 4940 nM.
`COc1ccc2c(O[C@@H]3C[C@H]4C(=O)N[C@]5(C(=O)NS(=O)(=O)C6CC6)C[C@H]5/C=C\CCCCCCC(=O)N4C3)cc(-c3nccs3)nc2c1` [Compound 32, N-[18-[7-methoxy-2-(thiazol-2-yl)quinolin-4-yloxy]-2,15-dioxo-3,16-diazatricyclo[14.3.0.0^4,6]nonadec-7-ene-4-carbonyl](cyclopropyl)-sulfonamide] was tested, and the EC50 was 17 nM.
`COc1ccc2c(O[C@@H]3C[C@H]4C(=O)N[C@]5(C(=O)O)C[C@H]5/C=C\CCCCCCC(=O)N4C3)nc(-n3cccn3)cc2c1` [Compound 33, 18-[6-methoxy-3-(pyrazol-1-yl)isoquinolin-1-yloxy]-2,15-dioxo-3,16-diazatricyclo[14.3.0.0^4,6]nonadec-7-ene-4-carboxylic acid] gave an EC50 of 6100 nM.
`COc1ccc2c(O[C@@H]3C[C@H]4C(=O)N[C@]5(C(=O)NS(=O)(=O)C6CC6)C[C@H]5/C=C\CCCCCCC(=O)N4C3)nc(-n3cccn3)cc2c1` [Compound 34, N-[18-[6-methoxy-3-(pyrazol-1-yl)isoquinolin-1-yloxy]-2,15-dioxo-3,16-diazatricyclo[14.3.0.0^4,6]nonadec-7-ene-4-carbonyl](cyclopropyl)-sulfonamide] gave an EC50 of 40 nM.
`COc1ccc2c(O[C@@H]3C[C@H]4C(=O)N[C@]5(C(=O)O)C[C@H]5/C=C\CCCCCCC(=O)N4C3)cc(-c3cscn3)nc2c1` [Compound 35, 18-[7-methoxy-2-(thiazol-4-yl)quinolin-4-yloxy]-2,15-dioxo-3,16-diazatricyclo[14.3.0.0^4,6]nonadec-7-ene-4-carboxylic acid] was tested, and the EC50 was 1630 nM.
In the case of `COc1ccc2c(O[C@@H]3C[C@H]4C(=O)N[C@]5(C(=O)NS(=O)(=O)C6CC6)C[C@H]5/C=C\CCCCCCC(=O)N4C3)cc(-c3cscn3)nc2c1` [Compound 36, N-[18-[7-methoxy-2-(thiazol-4-yl)quinolin-4-yloxy]-2,15-dioxo-3,16-diazatricyclo[14.3.0.0^4,6]nonadec-7-ene-4-carbonyl](cyclopropyl)-sulfonamide], the EC50 is reported as 4 nM.
With `COc1ccc2c(O[C@@H]3C[C@H]4C(=O)N[C@]5(C(=O)O)C[C@H]5/C=C\CCCCCCC(=O)N4C3)cc(-c3nccs3)nc2c1Br` [Compound 41, 18-[8-bromo-7-methoxy-2-(thiazol-2-yl)quinolin-4-yloxy]-2,15-dioxo-3,16-diazatricyclo[14.3.0.0^4,6]nonadec-7-ene-4-carboxylic acid] the EC50 was 280 nM.
`COc1ccc2c(O[C@@H]3C[C@H]4C(=O)N[C@]5(C(=O)NS(=O)(=O)C6CC6)C[C@H]5/C=C\CCCCCCC(=O)N4C3)cc(-c3nccs3)nc2c1Br` [Compound 42, N-[18-[8-bromo-2-(thiazol-2-yl)-7-methoxyquinolin-4-yloxy]-2,15-dioxo-3,16-diazatricyclo[14.3.0.0^4,6]nonadec-7-ene-4-carbonyl]-(cyclopropyl)sulfonamide] was tested, and the EC50 was 2 nM.
With `COc1ccc2c(O[C@@H]3C[C@H]4C(=O)N[C@]5(C(=O)NS(=O)(=O)C6CC6)C[C@H]5/C=C\CCCCCC(C)(C)C(=O)N4C3)cc(-c3nc(C(C)C)cs3)nc2c1Cl` [Compound 55, N-[18-[8-chloro-2-(4-isopropylthiazol-2-yl)-7-methoxyquinolin-4-yloxy]-14,14-dimethyl-2,15-dioxo-3,16-diazatricyclo[14.3.0.0^4,6]nonadec-7-ene-4-carbonyl](cyclopropyl)sulfonamide] the EC50 was 198 nM.
Compound `COc1ccc2c(O[C@@H]3C[C@H]4C(=O)N[C@]5(C(=O)O)C[C@H]5/C=C\CCCCCC(=O)N4C3)cc(-c3nc(C(C)C)cs3)nc2c1Cl` [Compound 56, 17-[8-chloro-2-(4-isopropylthiazol-2-yl)-7-methoxyquinolin-4-yloxy]-2,14-dioxo-3,15-diazatricyclo[13.3.0.0^4,6]octadec-7-ene-4-carboxylic acid] has an EC50 of 318 nM.
Work on `COc1ccc2c(O[C@@H]3C[C@H]4C(=O)N[C@]5(C(=O)NS(=O)(=O)C6CC6)C[C@H]5/C=C\CCCCCC(=O)N4C3)cc(-c3nc(C(C)C)cs3)nc2c1Cl` [Compound 57, N-[17-[8-chloro-2-(4-isopropylthiazol-2-yl)-7-methoxyquinolin-4-yloxy]-2,14-dioxo-3,15-diazatricyclo[13.3.0.0^4,6]octadec-7-ene-4-carbonyl]-(cyclopropyl)sulfonamide] yielded an EC50 of 12 nM.
